{"source": "patent US7947673B2", "about": "“Method of scintigraphy” (Novartis AG, priority 2005, dated 2011)", "key": {"[1]": {"assay": "Determination of the affinity constant for gallium by potentiometric measurements", "format": "physicochemical", "conditions": "ionic strength 0.1 M KCl, temperature 25° C., in water", "excerpt": "Determination of the affinity constant of 4-[3,5-bis(2-hydroxyphenyl)-[1,2,4]triazol-1-yl]benzoic acid for gallium\n(§1) Chem. 2004, pp 4177-4192. Considering the affinity constants of 4-[3,5-bis(2-hydroxyphenyl)-[1,2,4]triazol-1-yl]benzoic acid for other metal ions according to Steinhauser et al., Eur. J. Inorg."}, "[2]": {"assay": "Ranking of affinity constants for metal ions", "format": "physicochemical", "conditions": "other metal ion constants according to Steinhauser et al., Eur. J. Inorg. Chem. 2004", "excerpt": "as §1"}}, "data": [{"smiles": "O=C(O)c1ccc(-n2nc(-c3ccccc3O)nc2-c2ccccc2O)cc1", "note": "[4-[3,5-bis(2-hydroxyphenyl)-[1,2,4]triazol-1-yl]benzoic acid]", "values": [{"measurement": "affinity constant for Gallium, log β120", "setting": "[1]", "result": "33.8(1)"}, {"measurement": "ranking according to affinity constants for metal ions", "setting": "[2]", "result": "Fe(III) (highest affinity)>Ga(III)>Al(III)>>Cu(II)>>Zn(II)>>Mg(II)>Ca(II)"}]}]}
